Consider 1 compound from ChEMBL document CHEMBL5576083, “Structure-Based Design and Synthesis of Covalent Inhibitors for Deubiquitinase and Acetyltransferase ChlaDUB1 of Chlamydia trachomatis” (J Med Chem, 2024).

Activity calls are given as the source filed them. No cut-off for these calls is given here.

Data set [1] addresses T1, Ubiquitin carboxyl-terminal hydrolase isozyme L1 (Homo sapiens, UniProt P09936).
T1 sequence (P09936 whole entry): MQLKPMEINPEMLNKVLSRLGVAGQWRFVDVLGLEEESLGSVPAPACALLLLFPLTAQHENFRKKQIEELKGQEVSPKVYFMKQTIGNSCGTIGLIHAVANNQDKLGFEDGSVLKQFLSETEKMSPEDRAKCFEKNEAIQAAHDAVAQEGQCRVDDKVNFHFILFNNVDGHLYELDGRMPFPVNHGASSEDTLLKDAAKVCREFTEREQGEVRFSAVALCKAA
The data set is described as follows: Inhibition of 6His-tagged human UCHL1 using Ub-Rh110Gly as fluorogenic substrate preincubated for 1 hr followed by substrate addition by plate reader analysis.

The subject of data set [2] is Chlamydia trachomatis. The data set is described as follows: Antimicrobial activity against Chlamydia trachomatis serovar L2 infected in human HeLa cells assessed as reduction in microbial progeny at 12.5 ug/ml measured after 24 hrs of post-infection by immunofluorescence analysis. The class given is functional. On the set-up: scale not given: the % may be the effect or the level left. The settings on record: dose 12.5 µg/ml.

Data set [3] deals with Chlamydia trachomatis. Description: Antimicrobial activity against Chlamydia trachomatis serovar L2 infected in human HEp-2 cells assessed as fold change in inclusion forming unit at 1.56 to 12.5 ug/ml measured at 8 to 48 hrs of post-infection by immunofluorescence based microscopic analysis. Format: functional. The settings on record: dose 1.56-12.5 µg/ml; time 8-48 hrs.

In data set [4] the test system is Chlamydia trachomatis. The data set is described as follows: Antimicrobial activity against Chlamydia trachomatis serovar L2 infected in human HeLa cells assessed as reduction in microbial progeny at 6.25 ug/ml measured after 24 hrs of post-infection by immunofluorescence analysis. Format: functional. On the set-up: scale not given: the % may be the effect or the level left. Particulars: dose 6.25 µg/ml.

Data set [5] in a line: Inhibition of Chlamydia trachomatis DUB2 expressed in Escherichia coli Rosetta 2 (DE3) cells using Ub-Rh110Gly as fluorogenic substrate preincubated for 1 hr followed by substrate addition by plate reader analysis.
In data set [6] the test system is Chlamydia trachomatis. The data set is described as follows: Antimicrobial activity against Chlamydia trachomatis serovar L2 infected in human HeLa cells assessed as reduction in inclusion circumference at 12.5 ug/ml measured after 24 hrs of post-infection by microscopic analysis (reference value: 31.72 micrometer). Format: functional. Particulars: dose 12.5 µg/ml.

Data set [7] concerns Chlamydia trachomatis. Description: Antimicrobial activity against Chlamydia trachomatis serovar L2 infected in human HeLa cells assessed as reduction in microbial progeny at 1.56 ug/ml measured after 24 hrs of post-infection by immunofluorescence analysis. The class given is functional. The settings on record: dose 1.56 µg/ml.
The test system of another data set is HeLa. The data set is described as follows: Cytotoxicity against human HeLa cells at 128 ug/ml incubated for 20 hrs by […] assay. Format: functional, cell-based. The settings on record: dose 128.0 µg/ml.
Data set [8] is described as follows: Binding affinity to C-terminal 6His-tagged Chlamydia trachomatis DUB1 (130 to 401 residues) expressed in Escherichia coli Rosetta 2 (DE3) cells using Ub-Rh110Gly as fluorogenic substrate assessed as inhibition constant preincubated for 60 mins followed by substrate addition measured after 360 mins by plate reader analysis.
For data set [9], the system named is Chlamydia trachomatis. The data set is described as follows: Antimicrobial activity against Chlamydia trachomatis serovar L2 infected in human HeLa cells assessed as reduction in microbial progeny at 12.5 ug/ml measured after 48 hrs of post-infection by immunofluorescence analysis. The class given is functional. On the set-up: scale not given: the % may be the effect or the level left. The settings on record: dose 12.5 µg/ml.

In data set [10] the target is T2, Ubiquitin carboxyl-terminal hydrolase isozyme L3 (Homo sapiens) (UniProt P15374).
T2 sequence (whole entry): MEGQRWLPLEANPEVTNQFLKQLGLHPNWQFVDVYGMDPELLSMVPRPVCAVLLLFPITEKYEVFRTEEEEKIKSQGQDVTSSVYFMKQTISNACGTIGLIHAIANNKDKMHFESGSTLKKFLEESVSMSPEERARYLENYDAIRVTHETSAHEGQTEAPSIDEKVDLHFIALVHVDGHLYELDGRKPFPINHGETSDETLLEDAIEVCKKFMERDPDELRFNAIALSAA
The data set is described as follows: Inhibition of GST-tagged human UCHL3 using Ub-Rh110Gly as fluorogenic substrate at 40 uM preincubated for 1 hr followed by substrate addition by plate reader analysis.

The target of data set [11] is Ubiquitin carboxyl-terminal hydrolase isozyme L1 (Homo sapiens) (UniProt P09936). Description: Inhibition of 6His-tagged human UCHL1 using Ub-Rh110Gly as fluorogenic substrate at 40 uM preincubated for 1 hr followed by substrate addition by plate reader analysis.
The subject of data set [12] is Chlamydia trachomatis. The data set is described as follows: Antimicrobial activity against Chlamydia trachomatis serovar L2 infected in human HeLa cells assessed as reduction in microbial progeny at 3.13 ug/ml measured after 48 hrs of post-infection by immunofluorescence analysis. Particulars: dose 3.13 µg/ml. On the set-up: scale not given: the % may be the effect or the level left. Format: functional.

Data set [13] is described as follows: Covalent inhibition of C-terminal 6His-tagged Chlamydia trachomatis DUB1 (130 to 401 residues) expressed in Escherichia coli Rosetta 2 (DE3) cells using Ub-Rh110Gly as fluorogenic substrate preincubated for 1 hr followed by substrate addition by plate reader analysis.
The target of data set [14] is T3, Ubiquitin thioesterase OTU1 (Homo sapiens) (UniProt Q5VVQ6).
T3 sequence (whole entry): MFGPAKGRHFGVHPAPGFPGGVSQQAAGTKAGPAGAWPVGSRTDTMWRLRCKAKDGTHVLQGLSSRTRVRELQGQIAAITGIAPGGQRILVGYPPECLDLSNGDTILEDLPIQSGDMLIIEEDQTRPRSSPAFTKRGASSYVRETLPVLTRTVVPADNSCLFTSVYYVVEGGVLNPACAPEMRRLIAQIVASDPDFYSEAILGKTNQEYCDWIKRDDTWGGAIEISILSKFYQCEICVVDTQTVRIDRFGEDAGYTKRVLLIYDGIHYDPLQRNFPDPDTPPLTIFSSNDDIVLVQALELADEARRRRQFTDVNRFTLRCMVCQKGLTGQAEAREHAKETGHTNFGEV
The data set is described as follows: Inhibition of GST-tagged human OTUD2 using Ub-AMC as substrate at 40 uM preincubated for 1 hr followed by substrate addition by plate reader analysis.

The subject of another data set is HEp-2. Description: Cytotoxicity against human HEp-2 cells at 4 to 128 ug/ml incubated for 20 hrs by […] assay. The class given is toxicity, cell-based. Particulars: hep-2, 20 h, dose 4-128 µg/ml.
Data set [15] concerns Chlamydia trachomatis. The data set is described as follows: Antimicrobial activity against Chlamydia trachomatis serovar L2 infected in human HeLa cells assessed as reduction in inclusion area at 3.13 ug/ml measured after 24 hrs of post-infection by microscopic analysis. The class given is functional. Particulars: dose 3.13 µg/ml.
Data set [16] concerns Chlamydia trachomatis. The data set is described as follows: Antimicrobial activity against Chlamydia trachomatis serovar L2 infected in human HeLa cells assessed as reduction in inclusion circumference at 3.13 ug/ml measured after 24 hrs of post-infection by microscopic analysis (reference value: 31.72 micrometer). The class given is functional. The settings on record: dose 3.13 µg/ml.

Data set [17] deals with Chlamydia trachomatis. Description: Antimicrobial activity against Chlamydia trachomatis serovar L2 infected in human HeLa cells assessed as change in inclusion morphology at 1.56 to 12.5 ug/ml measured after 24 hrs of post-infection by immunofluorescence based microscopic analysis. Format: functional, organism-based. The settings on record: dose 1.56-12.5 µg/ml.
For data set [18], the system named is Chlamydia trachomatis. Description: Antimicrobial activity against Chlamydia trachomatis serovar L2 infected in human HeLa cells assessed as reduction in inclusion area at 6.25 ug/ml measured after 24 hrs of post-infection by microscopic analysis. Format: functional. Particulars: dose 6.25 µg/ml.

By IC50 is commonly meant the concentration needed to halve the response being measured. Broadly, the Ki is the dissociation constant of the complex between target and ligand, obtained from inhibition or displacement. What is called pIC50 is the negative decadic logarithm of the IC50, by convention in mol/L. Consider `N#Cc1ncc(C(=O)NCc2ccc(C(=O)NC34CC5CC(CC(C5)C3)C4)cc2)cn1`, for which the half-inhibitory concentration (IC50) is 4.2 µM in [1], 15.7 µM in data set [5] and 7.7 µM in [13]. The Activity in the data set with Chlamydia trachomatis [2] is given as 80%; in the data set with Chlamydia trachomatis [4] it was 66.5%; in the data set on Chlamydia trachomatis [6], 14.75 um; with Chlamydia trachomatis [9] it was 98.5%; in the data set with Chlamydia trachomatis [12] it was 11%; in the data set with HEp-2, “Toxic”. Besides, the Activity in the data set with Chlamydia trachomatis [15] is 49.99 um2; in the data set with Chlamydia trachomatis [16], 27.26 um; in the data set with Chlamydia trachomatis [18], 47.16 um2. In the data set on Chlamydia trachomatis [3], the “fold change (FC)” value turned out to be 2. The outcome in the data set with Chlamydia trachomatis [7], with HeLa and with Chlamydia trachomatis [17] was inactive. Also, in data set [8], the Ki amounted to 120 µM. Moreover, the inhibition result in data set [10] and in data set [14] was “inactive” throughout. Further, the inhibition result in data set [11] was “Active”. The compound further gave a negative-log IC50 (pIC50) in [13] of 5.11.
